Laboratory results as given in patent US11286234B2, “Phenyl urea derivatives as N-formyl peptide receptor modulators” (Allergan, Inc., priority 2016, dated 2022).
pEC50: −log10 of the molar value.

Legend:
FPR1 = biological target: T1, FPR1 (Homo sapiens, UniProt P21462); experiment: Compound-induced calcium activity (FLIPR Tetra) in CHO-Gα16 cells stably expressing FPR1; type: cell-based; conditions: for pEC50 / Emax: CHO-Gα16 cells stably expressing FPR1; for pEC50: calcium activity, tested 0.61 to 10,000 nM, read-out: FPR1 Ga16-CHO EC50; for Emax: efficacy value in brackets, read-out: FPR1 Ga16-CHO (% eff); for Ratio FPR2:FPR1 (EC50): ratio of the EC50 for agonizing FPR2 to the EC50 for agonizing FPR1
T1 construct: expressed in transfected cells
T1 sequence (P21462 1-350): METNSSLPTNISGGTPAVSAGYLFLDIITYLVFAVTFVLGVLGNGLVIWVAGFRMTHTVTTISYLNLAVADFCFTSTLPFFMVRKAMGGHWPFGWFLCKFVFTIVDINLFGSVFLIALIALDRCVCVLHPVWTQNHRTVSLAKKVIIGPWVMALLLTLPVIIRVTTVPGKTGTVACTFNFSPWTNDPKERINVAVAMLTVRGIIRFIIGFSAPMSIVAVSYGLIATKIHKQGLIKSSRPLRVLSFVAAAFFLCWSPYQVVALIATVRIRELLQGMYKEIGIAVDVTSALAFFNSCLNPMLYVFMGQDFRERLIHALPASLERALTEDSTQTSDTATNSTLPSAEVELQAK
Protocol: (§1) CHO-Gα16 cells stably expressing FPR1 or FPR2 were cultured in: Ham's F12 nutrient media, 10% fetal bovine serum, 1% PSA (penicillin, streptomycin, amphotericin B antiobiotic/antimycotic), 400 μg/ml geneticin and 50 μg/ml hygromycin. In general, the day before the experiment, 18,000 cells/well were plated in a 384-well clear bottom poly-D-lysine coated plate. The following day the screening compound-induced calcium activity was assayed on the FLIPR^Tetra. The drug plates were prepared in 384-well microplates using the EP3 and the MultiPROBE robotic liquid handling systems. Compounds were tested at concentrations ranging from 0.61 to 10,000 nM. Results are expressed as EC50 (nM) and efficacy values.

FPR2 = biological target: T2, FPR2 (Homo sapiens, UniProt P25090); experiment: Compound-induced calcium activity (FLIPR Tetra) in CHO-Gα16 cells stably expressing FPR2; type: cell-based; conditions: for pEC50: calcium activity, tested 0.61 to 10,000 nM, read-out: FPR2 Ga16-CHO EC50; for Emax: efficacy value in brackets, read-out: FPR2 Ga16-CHO (% eff)
T2 construct: expressed in transfected cells
T2 sequence (P25090 1-351): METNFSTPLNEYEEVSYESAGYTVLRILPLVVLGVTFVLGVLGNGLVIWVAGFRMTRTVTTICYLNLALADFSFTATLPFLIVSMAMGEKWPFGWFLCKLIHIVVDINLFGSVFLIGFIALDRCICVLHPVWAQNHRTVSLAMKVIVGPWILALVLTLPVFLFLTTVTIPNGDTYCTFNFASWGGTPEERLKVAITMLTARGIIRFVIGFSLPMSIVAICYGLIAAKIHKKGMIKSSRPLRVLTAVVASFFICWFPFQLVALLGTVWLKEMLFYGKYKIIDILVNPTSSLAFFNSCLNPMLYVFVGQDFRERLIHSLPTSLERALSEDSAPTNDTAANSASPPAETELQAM
Protocol: as §1

pEC50 (FPR1)	Emax (FPR1) [%]	Ratio FPR2:FPR1 (EC50) (FPR1)	pEC50 (FPR2)	Emax (FPR2) [%]	Structure (SMILES)
5.39	72	0.17	6.17	47	COC(=O)C(CNC(=O)Nc1ccc(Br)cc1)CC(C)C (stereo not drawn) [Compound 1, Methyl 2-[({[(4-bromophenyl)amino]carbonyl}amino)methyl]-4-methylpentanoate]
7.46	97	37	5.89	90	CC(C)CC(CNC(=O)Nc1ccc(Br)cc1)C(=O)O (stereo not drawn) [Compound 7, 2-[({[(4-Bromophenyl)amino]carbonyl}amino)methyl]-4-methylpentanoic acid]
7.27	105	25	5.87	92	CC(C)CC(CNC(=O)Nc1ccc(C(F)(F)F)cc1)C(=O)O (stereo not drawn) [Compound 8, 4-Methyl-2-{[({[4-(trifluoromethyl)phenyl}amino}carbonyl)amino]methyl}pentanoic acid]
6.79	95	18	5.52	–	CC(C)CC(CNC(=O)Nc1ccc(Cl)cc1)C(=O)O (stereo not drawn) [Compound 9, 2-[({[(4-Chlorophenyl)amino]carbonyl}amino)methyl]-4-methylpentanoic acid]
5.92	92	–	< 6.00	56	COc1ccc(NC(=O)NCC(CC(C)C)C(=O)O)cc1 (stereo not drawn) [Compound 11, 2-[({[(4-methoxyphenyl)amino]carbonyl}amino)methyl]-4-methylpentanoic acid]
5.66	97	1.2	5.57	83	CC(C)C(CNC(=O)Nc1ccc(Br)cc1)C(=O)O (stereo not drawn) [Compound 13, 2-((3-(4-Bromophenyl)ureido)methyl)-3-methylbutanoic acid]
6.61	99	5.4	5.88	83	CCCC(CNC(=O)Nc1ccc(Br)cc1)C(=O)O (stereo not drawn) [Compound 14, 2-((3-(4-Bromophenyl)ureido)methyl)pentanoic acid]
7.17	94	5.2	6.45	93	O=C(NCC(Cc1ccccc1)C(=O)O)Nc1ccc(Br)cc1 (stereo not drawn) [Compound 15, 2-Benzyl-3-(3-(4-bromophenyl)ureido)propanoic acid]
5.55	84	1.1	5.51	62	CC(CNC(=O)Nc1ccc(Br)cc1)C(=O)O (stereo not drawn) [Compound 16, 3-(3-(4-Bromophenyl)ureido)-2-methylpropanoic acid]
5.67	85	1.1	5.64	71	CCC(CNC(=O)Nc1ccc(Br)cc1)C(=O)O (stereo not drawn) [Compound 17, 2-((3-(4-Bromophenyl)ureido)methyl)butanoic acid]
5.20	69	<1	6.50	92	CC(C)CC(CNC(=O)Nc1ccc(Br)cc1)C(=O)N(C)C (stereo not drawn) [Compound 34, 2-((3-(4-bromophenyl)ureido)methyl)-N,N,4-trimethylpentanamide]
5.15	80	0.14	6.01	95	CC(C)CC(CNC(=O)Nc1ccc(Br)cc1)C(N)=O (stereo not drawn) [Compound 35, 2-((3-(4-bromophenyl)ureido)methyl)-4-methylpentanamide]

The remaining lines, values behind:

Structure (SMILES)	pEC50 (FPR1)	Emax (FPR1) [%]	Ratio FPR2:FPR1 (EC50) (FPR1)	pEC50 (FPR2)	Emax (FPR2) [%]
O=C(Nc1ccc(Br)cc1)N[C@@H]1CCCC[C@H]1C(=O)O (relative stereo) [Compound 18, (1R*,2R*)-2-(3-(4-Bromophenyl)ureido)cyclohexanecarboxylic acid]	7.33	101	5.2	6.61	98
O=C(Nc1ccc(Br)cc1)N[C@H]1CCCC[C@H]1C(=O)O (relative stereo) [Compound 19, (1R*,2S*)-2-(3-(4-Bromophenyl)ureido)cyclohexanecarboxylic acid]	7.85	97	3.4	7.32	102
COC(=O)C(CNC(=O)Nc1ccc(C(F)(F)F)cc1)CC(C)C (stereo not drawn) [Compound 2, Methyl 4-methyl-2-{[({[4-(trifluoromethyl)phenyl]amino}carbonyl)amino]methyl}pentanoate]	4.98	57	0.21	5.66	78
COC(=O)C(CNC(=O)Nc1ccc(Cl)cc1)CC(C)C (stereo not drawn) [Compound 3, Methyl 2-[({[(4-chlorophenyl)amino]carbonyl}amino)methyl]-4-methylpentanoate]	< 5.00	50	<1	5.88	95
COC(=O)C(CNC(=O)Nc1ccc(Br)cc1F)CC(C)C (stereo not drawn) [Compound 4, Methyl 2[({[(4-bromo-2-fluorophenyl)amino]carbonyl}amino)methyl]-4-methylpentanoate]	< 4.72	21	<1	5.82	98
COC(=O)C(CNC(=O)Nc1ccc(OC)cc1)CC(C)C (stereo not drawn) [Compound 5, Methyl 2-[({[(4-methoxyphenyl)amino]carbonyl}amino)methyl]-4-methylpentanoate]	< 4.14	65	<1	6.27	42
COC(=O)C(CNC(=O)Nc1ccc(OC(F)(F)F)cc1)CC(C)C (stereo not drawn) [Compound 6, Methyl 4-methyl-2-{[({[4-(trifluoromethoxy)phenyl]amino}carbonyl)amino]methyl}pentanoate]	< 4.82	39	–	< 6.00	67
CC(C)CC(CNC(=O)Nc1ccc(Br)cc1F)C(=O)O (stereo not drawn) [Compound 10, 2[({[(4-Bromo-2-fluorophenyl)amino]carbonyl}amino)methyl]-4-methylpentanoic acid]	6.95	98	17	5.72	94
CC(C)CC(CNC(=O)Nc1ccc(OC(F)(F)F)cc1)C(=O)O (stereo not drawn) [Compound 12, 4-Methyl-2-{[({[4-(trifluoromethoxy)phenyl]amino}carbonyl)amino]methyl}pentanoic acid]	5.93	81	6.9	5.09	40
O=C(Nc1ccc(Br)cc1)NC1CCCCCCC1C(=O)O (stereo not drawn) [Compound 20, 2-(3-(4-Bromophenyl)ureido)cyclooctanecarboxylic acid]	7.29	–	1.6	7.09	97
CC(C)CC(CCNC(=O)Nc1ccc(Br)cc1)S(=O)(=O)O (stereo not drawn) [Compound 21, 1-(3-(4-Bromophenyl)ureido)-5-methylhexane-3-sulfonic acid]	8.15	99	179	5.90	89
CC(C)CC(CNC(=O)Nc1ccc(Br)cc1)C(=O)NCC(=O)OC(C)(C)C (stereo not drawn) [Compound 31, t-Butyl ({2-[({[(4 bromophenyl)amino]carbonyl}amino)methyl]-4-methylpentanoyl}amino)acetate]	6.26	98	2.7	5.82	18
CC(C)CC(CNC(=O)Nc1ccc(Br)cc1)C(=O)N(C)CC(=O)OC(C)(C)C (stereo not drawn) [Compound 32, tert-Butyl 2-(2-((3-(4-bromophenyl)ureido)methyl)-N,4-dimethylpentanamido)acetate]	5.60	73	0.41	5.99	89
CC(C)CC(CNC(=O)Nc1ccc(Br)cc1)C(=O)NCc1nnn[nH]1 (stereo not drawn) [Compound 33, N-((1H-tetrazol-5-yl)methyl)-2-((3-(4-bromophenyl)ureido)methyl)-4-methylpentanamide]	7.89	95	10	6.89	98
